Read-outs that look alike come from different tables or passages of the source.
Legend:
[1] = Stability tests of lyophilized Idarubicin HCl, not stabilized and stabilized: pH, aglycone, bis-anhydro before and after lyophilization; assay type: physicochemical
Experimental: Starting product was idarubicin hydrochloride, 1% w/v in water, containing amount of free HCl. No additional chemicals were added. Most of the solution was frozen and lyophilized. […]
To obtain idarubicin hydrochloride containing a trace amount of free HCl, idarubicin HCl was slurried in 20 volumes of a mixture of dichloromethane:methanol (90:10) containing a 1% molar amount of HCl with respect to the molar amount of idarubicin hydrochloride. The slurry was filtered off and washed with the same solvent mixture and then dried under vacuum at room temperature, until constant weight.
Starting product was idarubicin hydrochloride: 1% w/v in water, containing a trace amount of free HCl. 1.5% mol of both NH4OAc and AcOH with respect to idarubicin hydrochloride were added. Most of the solution was frozen and lyophilized. […]
Starting product was idarubicin hydrochloride, 1% w/v in water, containing a trace amount of free HCl. The solution was first decolorized with charcoal and 1.5% mol of both NH4OAc and AcOH with respect to idarubicin hydrochloride were added. Most of the solution was frozen and lyophilized. […]
Starting product was idarubicin hydrochloride, 1% w/v in water, containing a trace amount of free HCl. 0.65% mol of both NH4OAc and AcOH (0.1% and 0.08% w/w, respectively) with respect to idarubicin hydrochloride were added. Most of the solution was frozen and lyophilized. […]
Starting product was idarubicin hydrochloride, 1% w/v in water, containing a trace amount of free HCl. 0.1% w/w of NH4HCO3 and gaseous CO2 were added. Most of the solution was frozen and lyophilized. […]
Starting product was idarubicin hydrochloride, 1% w/v in water, containing a trace amount of free HCl. 0.1% w/w of NaHCO3 and gaseous CO2 were added. Most of the solution was frozen and lyophilized. […]
Starting product was idarubicin hydrochloride, 1% w/v in water, containing a trace amount of free HCl. 1.0% molar amount of AMBERLITE® IRA-67 (1.6 M) acetate and 0.8% molar amount of acetic acid with respect to idarubicin hydrochloride were added. The solution was filtered through a 0.4 micron membrane then it was frozen and lyophilized.

[2] = Preparation of stable lyophilized anthracycline glycoside hydrochlorides: aglycone and dimer in the lyophilized product; assay type: physicochemical; settings: frozen and lyophilized
Experimental: Idarubicin hydrochloride (500 mg) was dissolved in water (50 ml) and acetic acid and ammonium acetate (both 1.5% molar amount with respect to the molar amount of idarubicin hydrochloride) were added. The solution was frozen and lyophilized.
Idarubicin hydrochloride (500 mg) was dissolved in water (50 ml) and acetic acid and ammonium acetate (both 1.5% molar amount with respect to the molar amount of idarubicin hydrochloride) were added. Charcoal was then added (100 g) and the solution was stirred for two hours. After that, the suspension was filtered through 0.4 micron membrane and then the solution was frozen and lyophilized.
Doxorubicin hydrochloride (500 mg) was dissolved in water (20 ml) and the pH corrected to 3.5 with acetic acid at room temperature. The solution was then warmed to 60° C. for 2 hours and then ammonium acetate (1.5% molar amount with respect to the molar amount of doxorubicin hydrochloride) was added. Then the solution was quickly frozen and lyophilized.
Epirubicin hydrochloride (1550 mg) was dissolved in water (100 ml) and the pH corrected to 3.2-3.8 with hydrochloric acid at room temperature. The solution was then warmed to 60° C.-65° C. for 1 hours and then the solution was cooled to 50-60° C. At the same time, the pH was corrected to 4.5-5.0 with sodium hydroxide. Then the solution was quickly frozen and lyophilized.
Idarubicin hydrochloride (5.0 g) was dissolved in water (500 ml). Then 58 microlitres of AMBERLITE® IRA-67 (1.6M) acetate (meaning 1.0% molar amount with respect to the molar amount of idarubicin hydrochloride) and 4.5 mg of acetic acid (meaning 0.8% molar amount with respect to the molar amount of idarubicin hydrochloride) were added. The suspension was slurried for two hours, then filtered, frozen and lyophilized.
Doxorubicin hydrochloride (5.0 g) was dissolved in water (200 ml) and the pH corrected to 4.6-4.8 with IN hydrochloric acid at room temperature. Then 80 microlitres of AMBERLITE® IRA-67 (1.6M) acetate (meaning 1.5% molar amount with respect to the molar amount of doxorubicin hydrochloride) was added. The solution was then filtered, frozen and lyophilized.
Epirubicin hydrochloride (1550 mg) was dissolved in water (100 ml) and the pH corrected to 3.2-3.8 with hydrochloric acid at room temperature. The solution was warmed to 60° C.-65° C. for 1 hour and then the solution was cooled to 50-60° C. At the same time, the pH was corrected to 4.5-5.0 with AMBERLITE® IRA-67 free base. Then the solution was quickly filtered, frozen, and lyophilized.

[3] = cited from earlier work
[4] = cited from earlier work; remark: listed apart in the source
[5] = Example 16: solution to load into lyophilizer, no additional chemicals
[6] = Example 26: solution + 1.5% mol of both NH4OAc/AcOH to load into lyophilizer
[7] = Example 27: solution decolorized with charcoal + 1.5% mol of both NH4OAc/AcOH to load into lyophilizer
[8] = Example 28: solution + 0.65% mol of both NH4OAc/AcOH to load into lyophilizer
[9] = Example 29: lyophilized product obtained (NH4HCO3 + CO2)
[10] = Example 29: solution + 0.1% w/w of NH4HCO3 and gaseous CO2 to saturation, to load into lyophilizer
[11] = Example 30: lyophilized product obtained (NaHCO3 + CO2)
[12] = Example 30: solution + 0.1% w/w of NaHCO3 and gaseous CO2 to saturation, to load into lyophilizer
[13] = Example 31: solution + 1.0% mol of IRA-67 acetate and 0.8% mol of acetic acid, slurried 2 hr, filtered, loaded into lyophilizer

SMILES: CC(=O)[C@]1(O)Cc2c(O)c3c(c(O)c2[C@@H](O[C@H]2C[C@@H](N)[C@H](O)C(C)O2)C1)C(=O)c1ccccc1C3=O.Cl (stereo partly drawn) [Idarubicin HCl, Idarubicin hydrochloride]
- % aglycone ([1]; Example 16: lyophilized product obtained, not stabilized): 0.29%
- % aglycone [1, 5]: 0.14%
- pH of the solution as 1% w/v [1, 5]: 5.36
- pH of the solution diluted to 0.5% w/v [1, 5]: 6.32
- % aglycone ([1]; Example 26: lyophilized product obtained (1.5% mol of both NH4OAc/AcOH)): 0.16%
- % aglycone [1, 6]: 0.14%
- pH of the solution as 1% w/v [1, 6]: 5.14
- pH of the solution diluted to 0.5% w/v [1, 6]: 5.26
- % aglycone ([1]; Example 27: lyophilized product obtained (charcoal + 1.5% mol of both NH4OAc/AcOH)): 0.04%
- % aglycone [1, 7]: 0.03%
- pH of the solution as 1% w/v [1, 7]: 5.85
- pH of the solution diluted to 0.5% w/v [1, 7]: 6.05
- % aglycone ([1]; Example 28: lyophilized product obtained (0.65% mol of both NH4OAc/AcOH)): 0.19%
- % aglycone [1, 8]: 0.15%
- pH of the solution diluted to 0.5% w/v [1, 8]: 5.72
- % aglycone [1, 9]: 0.16%
- % bis-anhydro [1, 9]: 0.05%
- % aglycone [1, 10]: 0.15%
- % bis-anhydro [1, 10]: 0.06%
- pH of the solution diluted to 0.5% w/v [1, 10]: 5.73
- % aglycone [1, 11]: 0.16%
- % bis-anhydro [1, 11]: 0.05%
- % aglycone [1, 12]: 0.15%
- % bis-anhydro [1, 12]: 0.05%
- pH of the solution diluted to 0.5% w/v [1, 12]: 6.14
- % aglycone ([1]; Example 31: lyophilized product obtained (IRA-67 acetate + acetic acid)): 0.18%
- % aglycone [1, 13]: 0.15%
- pH of the solution after dilution to 0.5% w/v [1, 13]: 5.82
- % aglycone ([1]; starting solid idarubicin HCl containing a trace amount of HCl): 0.14%
- aglycone contained in lyophilized product ([2]; Example 38: acetic acid and ammonium acetate, both 1.5% molar): 0.12%
- aglycone contained in lyophilized product ([2]; Example 39: acetic acid and ammonium acetate, both 1.5% molar, charcoal, filtered): 0.02%
- aglycone contained in lyophilized product ([2]; Example 42: AMBERLITE IRA-67 acetate 1.0% molar and acetic acid 0.8% molar, slurried two hours, filtered): 0.09%
- pH in a 0.5% w/v solution in water [3]: 5.0-6.5
- solubility ([4]; in acetone, chloroform, and methylene chloride): practically insoluble
- solubility ([4]; in water, methanol, and other polar solvents like dimethylformamide): soluble
- solubility ([4]; in water): not very soluble

— patent US20070004653A1, “Stable lyophilized anthracycline glycosides” (priority 2005, published 2007)
